In US10988429B2, “Quinochalcone compound and uses thereof for treating cancer or inflammation” (CHON THERAPEUTICS INC., LTD., priority 2017, dated 2021):

How the values were obtained:
mice melanoma B16 cells = experiment: B16 tumor-bearing C57 mice, HB-48 versus DMF (Example 3); assay type: in vivo, mouse; details: intratumor injection 5 mg/kg every two days for 10 days
Protocol: Establishment of tumor-bearing mice model: 1×10^5 mice melanoma B16 cells were transplanted into 4˜6 weeks old C57BL/C mice (C57 mice). The weight of each mouse was about 20 g. Tumors were visible on day 7. Mice were treated as follows when the tumor sizes were 5 mm×5 mm. • Control group 1 (PBS): Intratumor injection with PBS. • Experiment group 2 (HB-48): Intratumor injection with HB-48 at 5 mg/kg every two days for 10 days. • Experiment group 3 (DMF): Intratumor injection with DMF with 5 mg/kg every two days for 10 days.
Tumor sizes were recorded daily.

[1] = system: PD-1 expression in mouse CD8+ T cells; experiment: PD-1 expression on activated mouse CD8+ T cells, flow cytometry (Example 8); assay type: cell-based; details: mouse spleen CD8+ T cells activated by anti-CD3/CD28 beads; Kyn 200 μM and HB-48 10 μM; 48 hours
Protocol: Mouse spleen CD8+ T cells were sorted by magnetic beads and seeded in U-bottom 96-well plates (100,000/well) and T cells were activated by anti-CD3/CD28 magnetic beads. The medium was RPMI-1640 plus 10 ng/Mouse IL-2 and […] β-mercaptoethanol. Treatment and dosing is described below: • Control group 1 (PBS): Medium and PBS; • Experimental group 2 (Kyn): Kyn 200 μM was added to the Medium. • Experimental group 3 (Kyn+DMF): Kyn 200 μM and DMF 10 μM were added to the Medium simultaneously. • Experimental group 4 (Kyn+HB-48): Kyn 200 μM and HB-48 10 μM were added to the Medium simultaneously.
(§1) PD-1 expression levels were measured by flow cytometry in each group of T cells at 48 hours.

[2] = system: A375, B16, MP-1, MCF-7, HL-60, K562 and ALL-1 cells; experiment: 3D gel culture, number of colonies, HB-48 alone (Example 2); assay type: cell-based, human; mouse (B16); details: 3D culture; HB-48 1, 5, 10, 20 or 50 μmol/ml
Protocol: The following treatments were added to cultures of viable cells. • Control group 1 (Medium): RPMI-1640 medium supplemented with glutamine. • Experiment group1 (HB-48): HB-48 was added to cells at a final concentration of 1 μmol/ml, 5 μmol/ml, 10 μmol/ml, 20 μmol/ml, or 50 μmol/ml in Medium.
The day of drug treatment was recorded as day 0. […] The size of colonies in group control on day 2 is served as control.

OVA-B16 melanoma cells = experiment: OVA-B16 tumor-bearing C57BL/6 mice, adoptive CD8+ T cells and HB-48 (Example 9); assay type: in vivo, mouse; details: HB-48 intratumoral 5 mg/kg every two days, 10 times, OT-1 T cells 4×10^6 i.v. every 5 days, 3 times
Protocol: Tumor-bearing mice were constructed: OVA-B16 melanoma cells were seeded on C57BL/6 mice (inoculation amount of 1×10^5 cells) for 4-6 weeks. […] When the tumor size reached 5 mm×5 mm, tumor-bearing mice were treated as follows: • Control group 1 (PBS): Intratumoral injection of PBS only. • Experimental group 2 (CD8+ T cells): Tumor bearing mice were intravenously adoptively transferred with 4×10^6 OVA-specific CD8^+ T-cells (OT-1 T-cells) once every 5 days for 3 times. • Experimental group 3 (DMF): Tumor-bearing mice were intratumorally injected with DMF every two days, a total of 10 times, each dose of 5 mg/kg. • Experimental group 4 (HB-48): Tumor-bearing mice were intratumorally injected with HB-48 every two days, a total of 10 times, each dose of 5 mg/kg. • Experimental group 5 (CD8+ T and DMF): Tumor-bearing mice were intravenously transferred with OT-1 T cells every 5 days for 3 times, and intratumorally injected with DMF every two days for 10 times at the same time. • Experimental group 6 (CD8+ T and HB-48): Tumor-bearing mice were intravenously transfered with OT-1 T cells every 5 days for 3 times, and intratumorally injected with HB-48 every two days for 10 times at the same time.
Tumor length and width were measured daily, and tumor volume changes were calculated.

[3] = system: A375, B16, MP-1, MCF-7, HL-60, K562 and ALL-1 cells; experiment: 3D gel culture, clone size, HB-48 alone (Example 1); assay type: cell-based, human; mouse (B16); details: 3D culture; HB-48 1, 5, 10, 20 or 50 μmol/ml; 48 and 96 hours
Protocol: 3D gel technology involves culturing cells in a gel-like matrix. Studies in our lab have shown that cancer cells grown using 3D technology behave more like cancers found in vivo, as cancer cells grown using 3D technology display strong proliferative ability, higher drug resistance, stronger tumorigenicity and greater far-end invasion transfer ability than cancer cells cultured using traditional methods. The following treatments were added to 3D cultures of viable cells. • Control group 1 (Medium): RPMI-1640 medium supplemented with glutamine. • Experiment group1 (HB-48): HB-48 was added to cells at a final concentration of 1 μmol/ml, 5 μmol/ml, 10 μmol/ml, 20 μmol/ml, or 50 μmol/ml in Medium.
Dosing drugs was recorded as day 0. Clone size was determined by taking photographic images 48 and 96 hours after dosing. ImageJ software was used to analyze the size of the clones. The clone sizes in different groups were normalized to the control group on the second day.

Kyn transporter PAT4 = experiment: Expression of Kyn transporter PAT4 in activated human CD8+ T cells, quantitative PCR (Example 10); assay type: cell-based; details: activated CD8+ T cells of breast cancer patients; Kyn 200 μM with or without HB-48 10 μM; 48 hours
Protocol: (§2) Mononuclear cells were obtained from peripheral whole blood of patients with breast cancer using Ficoll. CD8+ T cells were sorted by magnetic beads and plated on 96-well U-shaped bottom plates (100,000 cells/well). T cells were activated by anti-CD3/CD28 magnetic beads. Media was RPMI-1640 plus 10 ng/mL human IL-2. Dosing by the following groups: • Control group 1 (PBS): medium and PBS. • Experimental group 2 (Kyn): Kyn 200 μM was added to the medium. • Experimental group 3 (Kyn+DMF): Kyn 200 μM and DMF 10 μM were added to the medium simultaneously. • Experimental group 4 (Kyn+HB-48): Kyn 200 μM and HB-48 10 μM were added to the medium simultaneously.
Each group of T cells RNA was extracted after 48 hours, and the expression of PAT4 was detected by fluorescence quantitative PCR.

[4] = system: PD-1 expression in human activated CD8+ T cells; experiment: Kyn-mediated PD-1 upregulation in activated peripheral blood CD8+ T cells of breast cancer patients (Example 10); assay type: cell-based; details: Kyn 200 μM and HB-48 10 μM, 48 hours, compared with DMF 10 μM
Protocol: as §2, §1

[5] = system: PD-1 expression in human peripheral blood CD8+ T cells; experiment: PD-1 expression in peripheral blood CD8+ T cells of breast cancer patients (Example 10); assay type: cell-based; details: resting CD8+ T cells of breast cancer patients; HB-48 10 μM; 48 hours; compared with DMF 10 μM
Protocol: Mononuclear cells were obtained from peripheral blood of breast cancer patients using Ficoll. CD8+ T cells were sorted by magnetic beads and plated on U-bottom 96-well plates (100,000 cells/well) supplemented with RPMI-1640 supplemented with 10 ng/mL human IL-2. Dosing by the following groups: • Control group 1 (PBS): medium plus PBS. • Experimental group 2 (DMF): DMF 10 μM was added to the medium. • Experimental group 3 (HB-48): HB-48 10 μM was added to the medium.
as §1

[6] = system: inflammatory factors of macrophages derived from murine bone marrow; experiment: Expression of inflammatory factors in bone marrow-derived macrophages, qPCR (Example 13); assay type: cell-based, mouse; details: HB-48 10 μM, 48 h
Protocol: Bone marrow-derived macrophages were obtained from mouse bone marrow cells, RPMI-1640 plus mouse M-CSF 20 ng/mL for 5 days and were treated as follows: • Control group 1 (PBS): medium plus PBS; • Experimental group 2 (HB-48): medium plus HB-48 at a dose of 10 μM. After 48 h, macrophages were collected and the expression of IFN-γ, TNF-α, IL-12p35, IL-12p40 and IL-2 was detected by qPCR in both groups.

[7] = system: OVA-B16 cells co-cultured with OT-1 CD8+ T cells; experiment: Apoptosis of OVA-B16 co-cultured with pretreated OT-1 CD8+ T cells (Example 8); assay type: cell-based, mouse; details: T cells pretreated with HB-48 10 μM for 24 hours; co-culture ratio 1 to 10; 4 hours
Protocol: Spleen CD8+ T cells of OT-1 mice were obtained by magnetic bead sorting, seeded in a U-shaped bottom 96-well plate (100,000 cells/well) and treated as follows. • Control group 1 (PBS): medium plus PBS. • Experimental group 2 (DMF): DMF 10 μM was added to the medium. • Experimental group 3 (HB-48): HB-48 10 μM was added to the medium.
After pretreatment of T cells for 24 hours, 3D cultured OVA-B16 was co-cultured with OT-1 CD8+ T cells at a ratio of 1 to 10, and the apoptosis of OVA-B16 cells was detected by flow cytometry after 4 hours.

Row | SMILES | tumor growth (tumor volume) (mice melanoma B16 cells) | Kyn-mediated upregulation of PD-1 in CD8+ T cells [1] | colony numbers of solid tumor cells and leukemia cells [2] | therapeutic effect (tumor volume) (OVA-B16 melanoma cells) | growth (relative clone size) of solid tumor and leukemia cells [3] | expression of PAT4 in peripheral blood CD8+ T cells (Kyn transporter PAT4) | Kyn-mediated upregulation of PD-1 in peripheral blood CD8+ T cells [4] | PD-1 expression in peripheral blood CD8+ T cells [5] | expression of IFN-γ [6] | expression of IL-1β [6] | expression of IL-12p35 [6] | expression of IL-12p40 [6] | expression of TNF-α [6] | percentage of apoptosis of OVA-B16 tumor cells [7]
1 | COc1ccc(-c2cc(=O)c3ccccc3o2)cc1OC [DMF, 3′,4′-Dimethoxyflavone, reference compound] | could inhibit the tumor growth | – | – | – | – | – | – | – | – | – | – | – | – | –
2 | COCOC1=CC(=O)/C(=C(O)/C=C/c2ccc(OCOC)cc2)C(=O)C1(CC=C(C)C)CC=C(C)C [HB-48, 2-[1-hydroxy-3-(4-methoxymethoxyphenyl)allylidene]-5-methoxymethoxy-6,6-diprenylcyclohex-4-ene-1,3-dione] | shows a significant enhanced anticancer effect | inhibited Kyn-mediated upregulation of PD-1 in CD8+ T cells more effectively than DMF | effectively reduced the colony numbers of solid tumor cells and leukemia cells in a dose dependent manner | had a certain therapeutic effect | significantly inhibited the growth of solid tumor and leukemia cells in a concentration-dependent manner | can down-regulate the expression of PAT4 | inhibited Kyn-mediated upregulation of PD-1 | more effectively down-regulated PD-1 expression | significantly reduced | significantly reduced | significantly reduced | significantly reduced | significantly reduced | significantly increased
3 | Nc1ccccc1C(=O)CC(N)C(=O)O (stereo not shown) [Kyn, Kynurenine, reference compound] | – | – | – | – | – | can up-regulate the expression of its transporter PAT4 | – | – | – | – | – | – | – | –
